Test results from patent US20210038607A1, “OXADIAZOLYLTHIOPHENE DERIVATIVES USEFUL AS HISTONE DEACETYLASE INHIBITORS” (Karus Therapeutics Limited, priority 2018, published 2021).

Assays:
Human HDAC4 = molecular target: T1, Human HDAC4 (Homo sapiens, UniProt P56524); test: HDAC4 biochemical assay, class IIa-specific substrate; conditions: read-out: HDAC Isoform IC50 (nM) 4
T1 construct: amino acids 627-1085 with N-terminal GST tag; GST (N); host or cells: baculovirus expression system
Method in brief: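 Two-step fluorogenic read-out: deacetylated BOC-Lys(trifluoroacetyl)-AMC (50 μM) was digested by developer and measured at Ex/Em 360/460. Deacetylation by 0.004 ng/ul HDAC4 (aa 627-1085, N-terminal GST) ran 30 min at room temperature, pH 8.0 Tris buffer, 1 mg/mL BSA, 1% DMSO.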

Recombinant human HDAC6 = molecular target: T2, Recombinant human HDAC6 (Homo sapiens, UniProt Q9UBN7); test: HDAC6 biochemical assay, AMC-labeled peptide substrate; conditions: HDAC6; read-out: HDAC Isoform IC50 (nM) 6
T2 construct: full length, MW=159 kDa; GST (N); host or cells: Sf9 insect cells (baculovirus)
T2 sequence (Q9UBN7 1-1215): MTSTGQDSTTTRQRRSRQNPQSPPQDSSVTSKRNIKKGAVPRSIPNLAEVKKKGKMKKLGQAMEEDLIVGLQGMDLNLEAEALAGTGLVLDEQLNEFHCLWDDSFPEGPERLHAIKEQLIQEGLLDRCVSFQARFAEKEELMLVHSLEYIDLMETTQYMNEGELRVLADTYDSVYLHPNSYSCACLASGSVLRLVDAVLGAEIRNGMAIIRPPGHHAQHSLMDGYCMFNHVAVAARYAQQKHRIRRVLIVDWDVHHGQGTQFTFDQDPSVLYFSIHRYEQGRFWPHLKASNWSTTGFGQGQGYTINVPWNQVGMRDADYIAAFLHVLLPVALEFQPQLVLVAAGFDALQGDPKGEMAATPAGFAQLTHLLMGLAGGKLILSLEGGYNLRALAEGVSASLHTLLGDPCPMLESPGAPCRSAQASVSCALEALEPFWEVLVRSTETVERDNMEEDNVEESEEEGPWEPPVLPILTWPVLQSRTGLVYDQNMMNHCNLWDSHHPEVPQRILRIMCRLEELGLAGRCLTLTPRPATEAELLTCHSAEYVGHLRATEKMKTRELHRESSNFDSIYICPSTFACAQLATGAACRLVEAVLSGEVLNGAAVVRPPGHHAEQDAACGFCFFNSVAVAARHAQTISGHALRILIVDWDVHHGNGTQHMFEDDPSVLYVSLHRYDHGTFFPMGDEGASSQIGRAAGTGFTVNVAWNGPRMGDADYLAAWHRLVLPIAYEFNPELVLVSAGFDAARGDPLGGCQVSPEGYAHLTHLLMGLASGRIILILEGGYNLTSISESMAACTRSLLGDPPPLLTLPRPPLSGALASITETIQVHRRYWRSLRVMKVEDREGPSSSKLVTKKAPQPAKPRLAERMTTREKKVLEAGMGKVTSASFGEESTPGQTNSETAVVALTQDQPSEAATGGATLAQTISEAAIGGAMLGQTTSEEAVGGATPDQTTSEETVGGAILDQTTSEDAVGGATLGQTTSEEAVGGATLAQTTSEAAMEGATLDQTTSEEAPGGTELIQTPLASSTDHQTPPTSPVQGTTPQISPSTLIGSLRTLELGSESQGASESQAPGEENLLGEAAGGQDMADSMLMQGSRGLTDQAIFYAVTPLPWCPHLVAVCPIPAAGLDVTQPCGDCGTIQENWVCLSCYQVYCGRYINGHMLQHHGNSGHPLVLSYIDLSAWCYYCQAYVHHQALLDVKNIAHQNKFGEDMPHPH
Method in brief: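 Two-step fluorogenic read-out: enzyme deacetylates 50 μM RHKK(Ac)AMC for 1 h at 30° C in pH 8.0 Tris buffer with BSA and 1% DMSO, then developer cleavage gives signal at Ex 360/Em 460. Enzyme: 0.3 ng/ul recombinant full-length human HDAC6, GST-tagged, Sf9-expressed.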

Human HDAC1 = molecular target: T3, Human HDAC1 (Homo sapiens, UniProt Q13547); test: HDAC1 biochemical assay, AMC-labeled peptide substrate; conditions: read-out: HDAC Isoform IC50 (nM) 1
T3 construct: full length with C-terminal His-tag and C-terminal FLAG-tag; His (C); FLAG (C); host or cells: baculovirus expression system
T3 sequence (Q13547 whole entry, canonical isoform): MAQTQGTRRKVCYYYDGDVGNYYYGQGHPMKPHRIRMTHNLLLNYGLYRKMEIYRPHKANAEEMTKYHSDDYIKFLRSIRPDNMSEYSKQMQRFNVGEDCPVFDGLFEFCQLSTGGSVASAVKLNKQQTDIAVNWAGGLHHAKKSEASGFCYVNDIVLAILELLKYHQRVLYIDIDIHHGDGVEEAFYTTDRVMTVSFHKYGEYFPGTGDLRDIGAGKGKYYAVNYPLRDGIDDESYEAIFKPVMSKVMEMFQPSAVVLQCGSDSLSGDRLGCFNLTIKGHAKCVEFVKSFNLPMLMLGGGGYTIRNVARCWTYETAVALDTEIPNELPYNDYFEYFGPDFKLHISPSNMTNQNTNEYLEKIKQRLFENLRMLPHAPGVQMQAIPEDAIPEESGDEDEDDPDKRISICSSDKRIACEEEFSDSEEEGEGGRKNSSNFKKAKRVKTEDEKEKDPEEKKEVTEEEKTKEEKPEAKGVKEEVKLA
Method in brief: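 Two-step fluorogenic read: HDAC1 deacetylates 50 μM acetyl-lysine AMC peptide RHKK(Ac)AMC for 1 h at 30° C (pH 8.0, 1% DMSO, with compound), then developer digests the product for fluorescence at Ex/Em 360/460. Enzyme is full-length human, His/FLAG-tagged, insect-cell expressed, at 0.3 ng/ul.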

T1 sequence (P56524 627-1084 limits assumed): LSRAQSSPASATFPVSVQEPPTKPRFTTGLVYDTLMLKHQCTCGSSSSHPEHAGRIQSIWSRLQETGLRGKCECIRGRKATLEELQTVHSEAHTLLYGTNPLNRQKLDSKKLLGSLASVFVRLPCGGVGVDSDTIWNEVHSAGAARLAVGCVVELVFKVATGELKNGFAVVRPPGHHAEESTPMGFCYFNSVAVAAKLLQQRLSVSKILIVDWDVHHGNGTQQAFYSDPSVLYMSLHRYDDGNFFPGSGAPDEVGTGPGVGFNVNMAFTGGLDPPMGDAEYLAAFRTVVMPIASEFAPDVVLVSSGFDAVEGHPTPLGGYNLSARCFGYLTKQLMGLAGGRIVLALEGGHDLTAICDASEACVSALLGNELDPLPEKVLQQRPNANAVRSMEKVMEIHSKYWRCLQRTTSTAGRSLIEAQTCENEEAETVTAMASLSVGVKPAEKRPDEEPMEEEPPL

SMILES: FC(F)(F)c1cnnc(N(Cc2ccc(-c3noc(C(F)(F)F)n3)s2)c2cnccn2)c1 [Example EF, N-(Pyrazin-2-yl)-5-(trifluoromethyl)-N-({5-[5-(trifluoromethyl)-1,2,4-oxadiazol-3-yl]thiophen-2-yl}methyl)pyridazin-3-amine]
- IC50 (Human HDAC4): ≤ 10000 nM
- IC50 (Recombinant human HDAC6): ≤ 500 nM
- IC50 (Human HDAC1): > 10000 nM

SMILES: FC(F)(F)c1nc(-c2ccc(CN(c3cnccn3)c3ccc(CN4CCOCC4)nn3)s2)no1 [Example FN, 6-[(Morpholin-4-yl)methyl]-N-(pyrazin-2-yl)-N-({5-[5-(trifluoromethyl)-1,2,4-oxadiazol-3-yl]thiophen-2-yl}methyl)pyridazin-3-amine]
- IC50 (Human HDAC4): ≤ 1000 nM
- IC50 (Recombinant human HDAC6): ≤ 500 nM
- IC50 (Human HDAC1): > 10000 nM

SMILES: COc1nccnc1N(Cc1ccc(-c2noc(C(F)(F)F)n2)s1)c1cnccn1 [Example BF, 3-Methoxy-N-(pyrazin-2-yl)-N-({5-[5-(trifluoromethyl)-1,2,4-oxadiazol-3-yl]thiophen-2-yl}methyl)pyrazin-2-amine]
- IC50 (Human HDAC4): ≤ 10000 nM
- IC50 (Recombinant human HDAC6): ≤ 10000 nM
- IC50 (Human HDAC1): > 10000 nM

SMILES: [O-][S+]1CCN(Cc2ccc(N(Cc3ccc(-c4noc(C(F)(F)F)n4)s3)c3cnccn3)nn2)CC1 [Example FO, 4-({6-[(Pyrazin-2-yl)({5-[5-(trifluoromethyl)-1,2,4-oxadiazol-3-yl]thiophen-2-yl}methyl)amino]pyridazin-3-yl}methyl)-1lambda4-thiomorpholin-1-one]
- IC50 (Human HDAC4): ≤ 1000 nM
- IC50 (Recombinant human HDAC6): ≤ 500 nM
- IC50 (Human HDAC1): > 10000 nM

SMILES: CNC(=O)c1cnnc(N(Cc2ccc(-c3noc(C(F)(F)F)n3)s2)c2cnccn2)c1 [Example DY, N-Methyl-6-[(pyrazin-2-yl)({5-[5-(trifluoromethyl)-1,2,4-oxadiazol-3-yl]thiophen-2-yl}methyl)amino]pyridazine-4-carboxamide]
- IC50 (Human HDAC4): ≤ 1000 nM
- IC50 (Recombinant human HDAC6): ≤ 500 nM
- IC50 (Human HDAC1): > 10000 nM

SMILES: FC(F)(F)c1nc(-c2ccc(CN(c3cnccn3)c3cc(-c4ccccn4)cnn3)s2)no1 [Example GM, N-(Pyrazin-2-yl)-5-(pyridin-2-yl)-N-({5-[5-(trifluoromethyl)-1,2,4-oxadiazol-3-yl]thiophen-2-yl}methyl)pyridazin-3-amine]
- IC50 (Human HDAC4): ≤ 10000 nM
- IC50 (Recombinant human HDAC6): ≤ 500 nM
- IC50 (Human HDAC1): > 10000 nM

SMILES: O=C(c1cnnc(N(Cc2ccc(-c3noc(C(F)(F)F)n3)s2)c2cnccn2)c1)N1CC[S+]([O-])CC1 [Example FU, 4-{6-[(Pyrazin-2-yl)({5-[5-(trifluoromethyl)-1,2,4-oxadiazol-3-yl]thiophen-2-yl}methyl)amino]pyridazine-4-carbonyl}-1lambda4-thiomorpholin-1-one]
- IC50 (Human HDAC4): ≤ 10000 nM
- IC50 (Recombinant human HDAC6): ≤ 500 nM
- IC50 (Human HDAC1): > 10000 nM

SMILES: O=C(c1ccc(N(Cc2ccc(-c3noc(C(F)(F)F)n3)s2)c2cnccn2)nn1)N1CCCC1 [Example FI, N-(Pyrazin-2-yl)-6-(pyrrolidine-1-carbonyl)-N-({5-[5-(trifluoromethyl)-1,2,4-oxadiazol-3-yl]thiophen-2-yl}methyl)pyridazin-3-amine]
- IC50 (Human HDAC4): ≤ 500 nM
- IC50 (Recombinant human HDAC6): ≤ 500 nM
- IC50 (Human HDAC1): ≤ 10000 nM

SMILES: O=C(O)c1cnnc(N(Cc2sc(-c3noc(C(F)(F)F)n3)cc2F)c2cnccn2)c1 [Example FA, 6-[({3-fluoro-5-[5-(trifluoromethyl)-1,2,4-oxadiazol-3-yl]thiophen-2-yl}methyl)(pyrazin-2-yl)amino]pyridazine-4-carboxylic acid]
- IC50 (Human HDAC4): ≤ 10000 nM
- IC50 (Recombinant human HDAC6): ≤ 500 nM
- IC50 (Human HDAC1): > 10000 nM

SMILES: CN1CCN(C(=O)c2cnnc(N(Cc3ccc(-c4noc(C(F)(F)F)n4)s3)c3cnccn3)c2)CC1 [Example EC, 5-(4-Methylpiperazine-1-carbonyl)-N-(pyrazin-2-yl)-N-({5-[5-(trifluoromethyl)-1,2,4-oxadiazol-3-yl]thiophen-2-yl}methyl)pyridazin-3-amine]
- IC50 (Human HDAC4): ≤ 10000 nM
- IC50 (Recombinant human HDAC6): ≤ 500 nM
- IC50 (Human HDAC1): > 10000 nM

SMILES: O=C(c1cnnc(N(Cc2ccc(-c3noc(C(F)(F)F)n3)s2)c2cnccn2)c1)N1CCC1 [Example FS, 5-(Azetidine-1-carbonyl)-N-(pyrazin-2-yl)-N-({5-[5-(trifluoromethyl)-1,2,4-oxadiazol-3-yl]thiophen-2-yl}methyl)pyridazin-3-amine]
- IC50 (Human HDAC4): ≤ 10000 nM
- IC50 (Recombinant human HDAC6): ≤ 500 nM
- IC50 (Human HDAC1): > 10000 nM

SMILES: O=C(c1cnnc(N(Cc2ccc(-c3noc(C(F)(F)F)n3)s2)c2cnccn2)c1)N1CC(F)(F)C1 [Example FT, 5-(3,3-Difluoroazetidine-1-carbonyl)-N-(pyrazin-2-yl)-N-({5-[5-(trifluoromethyl)-1,2,4-oxadiazol-3-yl]thiophen-2-yl}methyl)pyridazin-3-amine]
- IC50 (Human HDAC4): ≤ 10000 nM
- IC50 (Recombinant human HDAC6): ≤ 500 nM
- IC50 (Human HDAC1): > 10000 nM

SMILES: FC(F)(F)c1nc(-c2ccc(CN(c3cnccn3)c3cc(CN4CCOCC4)ccn3)s2)no1 [Example GI, N-{4-[(Morpholin-4-yl)methyl]pyridin-2-yl}-N-({5-[5-(trifluoromethyl)-1,2,4-oxadiazol-3-yl]thiophen-2-yl}methyl)pyrazin-2-amine]
- IC50 (Human HDAC4): ≤ 10000 nM
- IC50 (Recombinant human HDAC6): ≤ 1000 nM
- IC50 (Human HDAC1): > 10000 nM

SMILES: C[C@H]1CCCN1C(=O)c1cnnc(N(Cc2ccc(-c3noc(C(F)(F)F)n3)s2)c2cnccn2)c1 [Example GY, 5-[(2S)-2-Methylpyrrolidine-1-carbonyl]-N-(pyrazin-2-yl)-N-({5-[5-(trifluoromethyl)-1,2,4-oxadiazol-3-yl]thiophen-2-yl}methyl)pyridazin-3-amine]
- IC50 (Human HDAC4): ≤ 10000 nM
- IC50 (Recombinant human HDAC6): ≤ 500 nM
- IC50 (Human HDAC1): > 10000 nM

SMILES: CC(C)(O)c1cnnc(N(Cc2ccc(-c3noc(C(F)(F)F)n3)s2)c2cnccn2)c1 [Example GS, 2-{6-[(Pyrazin-2-yl)({5-[5-(trifluoromethyl)-1,2,4-oxadiazol-3-yl]thiophen-2-yl}methyl)amino]pyridazin-4-yl}propan-2-ol]
- IC50 (Human HDAC4): ≤ 1000 nM
- IC50 (Recombinant human HDAC6): ≤ 500 nM
- IC50 (Human HDAC1): ≤ 10000 nM

SMILES: FC(F)(F)c1cnnc(N(Cc2ccc(-c3noc(C(F)(F)F)n3)s2)c2cccnn2)c1 [Example ER, N-(Pyridazin-3-yl)-5-(trifluoromethyl)-N-({5-[5-(trifluoromethyl)-1,2,4-oxadiazol-3-yl]thiophen-2-yl}methyl)pyridazin-3-amine]
- IC50 (Human HDAC4): ≤ 10000 nM
- IC50 (Recombinant human HDAC6): ≤ 500 nM
- IC50 (Human HDAC1): > 10000 nM

SMILES: O=C(c1ccc(N(Cc2ccc(-c3noc(C(F)(F)F)n3)s2)c2cnccn2)nn1)N1CC[S+]([O-])CC1 [Example FD, 4-{6-[(Pyrazin-2-yl)({5-[5-(trifluoromethyl)-1,2,4-oxadiazol-3-yl]thiophen-2-yl}methyl)amino]pyridazine-3-carbonyl}-1lambda4-thiomorpholin-1-one]
- IC50 (Human HDAC4): ≤ 500 nM
- IC50 (Recombinant human HDAC6): ≤ 500 nM
- IC50 (Human HDAC1): ≤ 10000 nM

SMILES: CN(C)C1CN(C(=O)c2cnnc(N(Cc3ccc(-c4noc(C(F)(F)F)n4)s3)c3cnccn3)c2)C1 [Example FX, 5-[3-(Dimethylamino)azetidine-1-carbonyl]-N-(pyrazin-2-yl)-N-({5-[5-(trifluoromethyl)-1,2,4-oxadiazol-3-yl]thiophen-2-yl}methyl)pyridazin-3-amine]
- IC50 (Human HDAC4): ≤ 10000 nM
- IC50 (Recombinant human HDAC6): ≤ 500 nM
- IC50 (Human HDAC1): > 10000 nM
